Experiments:
Test in all cases: Test B pre-/postemergence plant response
Format in all cases: in vivo
[1] = test system: giant foxtail (Setaria faberii); conditions: for Foxtail, Giant plant response rating (0 to 100 scale): 0 is no effect, 13 to 15 days
Procedure, shortened: (§1)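 Greenhouse herbicide screen. Pre- and postemergence (1- to 4-leaf) spray of compound in solvent/surfactant mixture; loam–sand soil for pre, peat/vermiculite medium for post. Visual control rating 0–100 at 13 to 15 days after treatment.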

corn (Zea mays) = conditions: for Corn plant response rating (0 to 100 scale): 0 is no effect, 13 to 15 days
Procedure, shortened: as §1

[2] = test system: large crabgrass (Digitaria sanguinalis); conditions: for Crabgrass, Large plant response rating (0 to 100 scale): 0 is no effect, 13 to 15 days
Procedure, shortened: as §1

[3] = test system: blackgrass (Alopecurus myosuroides); conditions: for Blackgrass plant response rating (0 to 100 scale): 0 is no effect, 13 to 15 days
Procedure, shortened: as §1

[4] = test system: green foxtail (Setaria viridis); conditions: for Foxtail, Green plant response rating (0 to 100 scale): 0 is no effect, 13 to 15 days
Procedure, shortened: as §1

[5] = test system: lambsquarters (Chenopodium album); conditions: for Lambsquarters plant response rating (0 to 100 scale): 0 is no effect, 13 to 15 days
Procedure, shortened: as §1

[6] = test system: Italian ryegrass (Lolium multiflorum); conditions: for Ryegrass, Italian plant response rating (0 to 100 scale): 0 is no effect, 13 to 15 days
Procedure, shortened: as §1

[7] = test system: yellow nutsedge (Cyperus esculentus); conditions: for Nutsedge, Yellow plant response rating (0 to 100 scale): 0 is no effect, 13 to 15 days
Procedure, shortened: as §1

[8] = test system: woolly cupgrass (Eriochloa villosa); conditions: for Cupgrass, Woolly plant response rating (0 to 100 scale): 0 is no effect, 13 to 15 days
Procedure, shortened: as §1

[9] = test system: bermudagrass (Cynodon dactylon); conditions: for Bermudagrass plant response rating (0 to 100 scale): 0 is no effect, 13 to 15 days
Procedure, shortened: as §1

[10] = test system: morningglory (Ipomoea coccinea); conditions: for Morningglory plant response rating (0 to 100 scale): 0 is no effect, 13 to 15 days
Procedure, shortened: as §1

[11] = test system: downy bromegrass (Bromus tectorum); conditions: for Bromegrass, Downy plant response rating (0 to 100 scale): 0 is no effect, 13 to 15 days
Procedure, shortened: as §1

[12] = test system: Surinam grass (Brachiaria decumbens); conditions: for Surinam Grass plant response rating (0 to 100 scale): 0 is no effect, 13 to 15 days
Procedure, shortened: as §1

[13] = 31 g ai/ha, postemergence, scale 0 to 100, 0 is no effect, 100 is complete control
[14] = 62 g ai/ha, postemergence, 100 is complete control
[15] = Postemergence, 125 g ai/ha, visual rating after 13 to 15 days, scale 0 (no effect) to 100 (complete control)
[16] = Postemergence, 250 g ai/ha, scale 0 to 100 (0 no effect, 100 complete control)
[17] = 250 g ai/ha, Preemergence, 0 to 100 scale
[18] = Preemergence, 31 g ai/ha, scale 0 to 100 (0 no effect, 100 complete control)
[19] = Preemergence, 62 g ai/ha, scale 0 to 100 (0 no effect, 100 complete control)
[20] = Preemergence, 125 g ai/ha, scale 0 to 100, 0 no effect, 100 complete control

## O=C1CCCC(O)=C1C(=O)c1cnc(-c2ccccc2Br)n(-c2ccccc2)c1=O [Compound 71]
[1]; [13]
  Plant response rating, Foxtail, Giant: 20
[1]; [14]
  Foxtail, Giant plant response rating (0 to 100 scale): 75
[1]; [15]
  Plant response rating, Foxtail, Giant: 80
[1]; [16]
  Plant response rating, Foxtail, Giant: 95
Corn (Zea mays); [13]
  Plant response rating, Corn: 0
Corn (Zea mays); [14]
  Corn plant response rating (0 to 100 scale): 0
Corn (Zea mays); [15]
  Plant response rating, Corn: 0
Corn (Zea mays); [16]
  Plant response rating, Corn: 15
[2]; [13]
  Plant response rating, Crabgrass, Large: 65
[2]; [14]
  Crabgrass, Large plant response rating (0 to 100 scale): 75
[2]; [15]
  Plant response rating, Crabgrass, Large: 80
[2]; [16]
  Plant response rating, Crabgrass, Large: 95
[3]; [13]
  Plant response rating, Blackgrass: 0
[3]; [14]
  Blackgrass plant response rating (0 to 100 scale): 0
[3]; [15]
  Plant response rating, Blackgrass: 0
[3]; [16]
  Plant response rating, Blackgrass: 5
[4]; [13]
  Plant response rating, Foxtail, Green: 60
[4]; [14]
  Foxtail, Green plant response rating (0 to 100 scale): 60
[4]; [15]
  Plant response rating, Foxtail, Green: 70
[4]; [16]
  Plant response rating, Foxtail, Green: 98
[5]; [13]
  Plant response rating, Lambsquarters: 75
[5]; [14]
  Lambsquarters plant response rating (0 to 100 scale): 85
[5]; [15]
  Plant response rating, Lambsquarters: 90
[5]; [16]
  Plant response rating, Lambsquarters: 98
[6]; [13]
  Plant response rating, Ryegrass, Italian: 0
[6]; [14]
  Ryegrass, Italian plant response rating (0 to 100 scale): 0
[6]; [15]
  Plant response rating, Ryegrass, Italian: 0
[6]; [16]
  Plant response rating, Ryegrass, Italian: 5
[7]; [13]
  Plant response rating, Nutsedge, Yellow: 10
[7]; [14]
  Nutsedge, Yellow plant response rating (0 to 100 scale): 10
[7]; [15]
  Plant response rating, Nutsedge, Yellow: 10
[7]; [16]
  Plant response rating, Nutsedge, Yellow: 25
[8]; [13]
  Plant response rating, Cupgrass, Woolly: 10
[8]; [14]
  Cupgrass, Woolly plant response rating (0 to 100 scale): 45
[8]; [15]
  Plant response rating, Cupgrass, Woolly: 85
[8]; [16]
  Plant response rating, Cupgrass, Woolly: 100
[9]; [13]
  Plant response rating, Bermudagrass: 65
[9]; [14]
  Bermudagrass plant response rating (0 to 100 scale): 75
[9]; [15]
  Plant response rating, Bermudagrass: 80
[9]; [16]
  Plant response rating, Bermudagrass: 98
[10]; [13]
  Plant response rating, Morningglory: 65
[10]; [14]
  Morningglory plant response rating (0 to 100 scale): 65
[10]; [15]
  Plant response rating, Morningglory: 75
[10]; [16]
  Plant response rating, Morningglory: 80
[11]; [13]
  Plant response rating, Bromegrass, Downy: 0
[11]; [14]
  Bromegrass, Downy plant response rating (0 to 100 scale): 5
[11]; [15]
  Plant response rating, Bromegrass, Downy: 10
[11]; [16]
  Plant response rating, Bromegrass, Downy: 30
[12]; [13]
  Plant response rating, Surinam Grass: 50
[12]; [14]
  Surinam Grass plant response rating (0 to 100 scale): 55
[12]; [15]
  Plant response rating, Surinam Grass: 65
[12]; [16]
  Plant response rating, Surinam Grass: 85

## CCCc1ncc(C(=O)C2=C(O)CCCC2=O)c(=O)n1-c1ccccc1C [Compound 73]
[1]; [13]
  Plant response rating, Foxtail, Giant: 70
[1]; [14]
  Foxtail, Giant plant response rating (0 to 100 scale): 75
[1]; [17]
  Plant response rating, Foxtail, Giant: 80
[1]; [15]
  Plant response rating, Foxtail, Giant: 80
[1]; [16]
  Plant response rating, Foxtail, Giant: 90
[1]; [18]
  Plant response rating, Foxtail, Giant: 0
[1]; [19]
  Plant response rating, Foxtail, Giant: 70
[1]; [20]
  Plant response rating, Foxtail, Giant: 75
Corn (Zea mays); [13]
  Plant response rating, Corn: 20
Corn (Zea mays); [14]
  Corn plant response rating (0 to 100 scale): 80
Corn (Zea mays); [17]
  Plant response rating, Corn: 10
Corn (Zea mays); [15]
  Plant response rating, Corn: 80
Corn (Zea mays); [16]
  Plant response rating, Corn: 85
Corn (Zea mays); [18]
  Plant response rating, Corn: 0
Corn (Zea mays); [19]
  Plant response rating, Corn: 0
Corn (Zea mays); [20]
  Plant response rating, Corn: 0
[2]; [13]
  Plant response rating, Crabgrass, Large: 80
[2]; [14]
  Crabgrass, Large plant response rating (0 to 100 scale): 85
[2]; [17]
  Plant response rating, Crabgrass, Large: 100
[2]; [15]
  Plant response rating, Crabgrass, Large: 90
[2]; [16]
  Plant response rating, Crabgrass, Large: 95
[2]; [18]
  Plant response rating, Crabgrass, Large: 85
[2]; [19]
  Plant response rating, Crabgrass, Large: 98
[2]; [20]
  Plant response rating, Crabgrass, Large: 100
[3]; [13]
  Plant response rating, Blackgrass: 0
[3]; [14]
  Blackgrass plant response rating (0 to 100 scale): 10
[3]; [17]
  Plant response rating, Blackgrass: 10
[3]; [15]
  Plant response rating, Blackgrass: 10
[3]; [16]
  Plant response rating, Blackgrass: 30
[3]; [18]
  Plant response rating, Blackgrass: 0
[3]; [19]
  Plant response rating, Blackgrass: 0
[3]; [20]
  Plant response rating, Blackgrass: 0
[4]; [13]
  Plant response rating, Foxtail, Green: 70
[4]; [14]
  Foxtail, Green plant response rating (0 to 100 scale): 90
[4]; [17]
  Plant response rating, Foxtail, Green: 80
[4]; [15]
  Plant response rating, Foxtail, Green: 90
[4]; [16]
  Plant response rating, Foxtail, Green: 95
[4]; [18]
  Plant response rating, Foxtail, Green: 0
[4]; [19]
  Plant response rating, Foxtail, Green: 30
[4]; [20]
  Plant response rating, Foxtail, Green: 30
[5]; [13]
  Plant response rating, Lambsquarters: 85
[5]; [14]
  Lambsquarters plant response rating (0 to 100 scale): 98
[5]; [17]
  Plant response rating, Lambsquarters: 100
[5]; [15]
  Plant response rating, Lambsquarters: 100
[5]; [16]
  Plant response rating, Lambsquarters: 100
[5]; [18]
  Plant response rating, Lambsquarters: 95
[5]; [19]
  Plant response rating, Lambsquarters: 98
[5]; [20]
  Plant response rating, Lambsquarters: 100
[6]; [13]
  Plant response rating, Ryegrass, Italian: 35
[6]; [14]
  Ryegrass, Italian plant response rating (0 to 100 scale): 45
[6]; [15]
  Plant response rating, Ryegrass, Italian: 60
[6]; [16]
  Plant response rating, Ryegrass, Italian: 70
[6]; [18]
  Plant response rating, Ryegrass, Italian: 0
[6]; [19]
  Plant response rating, Ryegrass, Italian: 0
[6]; [20]
  Plant response rating, Ryegrass, Italian: 0
[7]; [13]
  Plant response rating, Nutsedge, Yellow: 20
[7]; [14]
  Nutsedge, Yellow plant response rating (0 to 100 scale): 20
[7]; [15]
  Plant response rating, Nutsedge, Yellow: 50
[7]; [16]
  Plant response rating, Nutsedge, Yellow: 70
[7]; [18]
  Plant response rating, Nutsedge, Yellow: 20
[7]; [19]
  Plant response rating, Nutsedge, Yellow: 65
[7]; [20]
  Plant response rating, Nutsedge, Yellow: 65
[8]; [13]
  Plant response rating, Cupgrass, Woolly: 60
[8]; [14]
  Cupgrass, Woolly plant response rating (0 to 100 scale): 65
[8]; [17]
  Plant response rating, Cupgrass, Woolly: 80
[8]; [15]
  Plant response rating, Cupgrass, Woolly: 65
[8]; [16]
  Plant response rating, Cupgrass, Woolly: 65
[8]; [18]
  Plant response rating, Cupgrass, Woolly: 10
[8]; [19]
  Plant response rating, Cupgrass, Woolly: 20
[8]; [20]
  Plant response rating, Cupgrass, Woolly: 55
[9]; [13]
  Plant response rating, Bermudagrass: 65
[9]; [14]
  Bermudagrass plant response rating (0 to 100 scale): 80
[9]; [17]
  Plant response rating, Bermudagrass: 100
[9]; [15]
  Plant response rating, Bermudagrass: 90
[9]; [16]
  Plant response rating, Bermudagrass: 90
[9]; [18]
  Plant response rating, Bermudagrass: 50
[9]; [19]
  Plant response rating, Bermudagrass: 98
[9]; [20]
  Plant response rating, Bermudagrass: 98
[10]; [13]
  Plant response rating, Morningglory: 0
[10]; [14]
  Morningglory plant response rating (0 to 100 scale): 50
[10]; [15]
  Plant response rating, Morningglory: 75
[10]; [16]
  Plant response rating, Morningglory: 95
[10]; [18]
  Plant response rating, Morningglory: 0
[10]; [19]
  Plant response rating, Morningglory: 0
[10]; [20]
  Plant response rating, Morningglory: 45
[11]; [13]
  Plant response rating, Bromegrass, Downy: 20
[11]; [14]
  Bromegrass, Downy plant response rating (0 to 100 scale): 45
[11]; [17]
  Plant response rating, Bromegrass, Downy: 20
[11]; [15]
  Plant response rating, Bromegrass, Downy: 50
[11]; [16]
  Plant response rating, Bromegrass, Downy: 60
[11]; [18]
  Plant response rating, Bromegrass, Downy: 0
[11]; [19]
  Plant response rating, Bromegrass, Downy: 5
[11]; [20]
  Plant response rating, Bromegrass, Downy: 5
[12]; [13]
  Plant response rating, Surinam Grass: 80
[12]; [14]
  Surinam Grass plant response rating (0 to 100 scale): 85
[12]; [15]
  Plant response rating, Surinam Grass: 85
[12]; [16]
  Plant response rating, Surinam Grass: 85
[12]; [18]
  Plant response rating, Surinam Grass: 85
[12]; [19]
  Plant response rating, Surinam Grass: 100
[12]; [20]
  Plant response rating, Surinam Grass: 100

— patent US8952024B2, “Herbicidal pyrimidone derivatives” (E I du Pont de Nemours and Company, priority 2009, dated 2015)
